Data from patent US8614201B2 (Janssen Pharmaceutica NV, priority 2009, dated 2013).

molecular target: Human TRPA1 (Homo sapiens, UniProt O75762); test: Alternative TRPA1 Ca2+ fluorometry assay (hTRPA1/TREx-HEK293 cells, Fluo-4, FDSS 6000); assay type: cell-based; set-up: expressed in transfected cells; details: Fluo-4-AM, agonist 6,11-dihydro-5H-dibenzo[b,e]azepine-10-carboxylic acid methyl ester 25 nM, procedure used for Examples 184, 190 to 192, 194 to 316
Method in brief: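 Tetracycline-induced (50 ng/ml, 24 h) hTRPA1/TREx-HEK293 cells were loaded with Fluo-4-AM and probenecid. Compound (1% DMSO final) was added after a 12 s baseline and the Ca2+ signal followed for 14 min, then 25 nM TRPA1 agonist dibenzazepine carboxylic acid methyl ester was applied. Signal is Em540 (ex 488 nm) relative to the first baseline reading.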

Chain of Human TRPA1 (O75762 whole entry): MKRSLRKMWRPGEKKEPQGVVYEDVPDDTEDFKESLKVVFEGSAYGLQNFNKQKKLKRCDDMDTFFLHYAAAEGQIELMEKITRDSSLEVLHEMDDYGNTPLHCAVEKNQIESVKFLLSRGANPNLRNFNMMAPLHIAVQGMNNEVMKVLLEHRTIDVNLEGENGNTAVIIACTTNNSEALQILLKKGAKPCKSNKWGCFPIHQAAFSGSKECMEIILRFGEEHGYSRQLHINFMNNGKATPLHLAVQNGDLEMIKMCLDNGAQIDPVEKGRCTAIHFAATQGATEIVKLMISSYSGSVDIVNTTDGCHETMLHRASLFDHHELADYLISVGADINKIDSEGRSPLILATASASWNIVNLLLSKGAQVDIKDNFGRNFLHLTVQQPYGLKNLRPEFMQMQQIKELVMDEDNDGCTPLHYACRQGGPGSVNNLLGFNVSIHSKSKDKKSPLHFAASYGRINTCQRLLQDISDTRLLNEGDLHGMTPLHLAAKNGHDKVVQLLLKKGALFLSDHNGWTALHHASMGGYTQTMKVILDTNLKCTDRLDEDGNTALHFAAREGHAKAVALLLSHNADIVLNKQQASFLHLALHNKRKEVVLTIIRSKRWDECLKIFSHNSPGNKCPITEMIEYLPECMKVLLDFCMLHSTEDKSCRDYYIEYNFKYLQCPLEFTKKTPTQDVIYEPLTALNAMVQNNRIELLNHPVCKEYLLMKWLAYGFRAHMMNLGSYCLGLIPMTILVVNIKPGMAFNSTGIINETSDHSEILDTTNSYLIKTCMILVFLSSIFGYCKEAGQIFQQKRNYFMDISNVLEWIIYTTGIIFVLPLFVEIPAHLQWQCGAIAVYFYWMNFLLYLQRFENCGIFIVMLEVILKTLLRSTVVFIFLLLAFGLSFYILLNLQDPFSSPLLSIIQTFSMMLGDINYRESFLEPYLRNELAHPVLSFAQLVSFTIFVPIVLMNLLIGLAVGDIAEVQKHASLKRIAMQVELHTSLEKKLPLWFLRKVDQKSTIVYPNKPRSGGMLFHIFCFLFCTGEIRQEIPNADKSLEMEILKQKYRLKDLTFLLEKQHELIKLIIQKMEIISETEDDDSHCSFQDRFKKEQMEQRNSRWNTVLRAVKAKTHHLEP

| Compound | IC50 |
| --- | --- |
| O=C(NCc1cc(-c2ccc(Cl)cc2Cl)nc(N2CCN(c3ccccc3F)CC2)n1)[C@@H]1CCCN1S(=O)(=O)c1ccc(F)cc1 [Example 250, 1-(4-Fluoro-benzenesulfonyl)-pyrrolidine-2S-carboxylic acid {6-(2,4-dichloro-phenyl)-2-[4-(2-fluoro-phenyl)-piperazin-1-yl]-pyrimidin-4-ylmethyl}-amide] | 851 nM |
| O=C(NCc1cc(-c2ccccc2)nc(N2CCN(c3ccccc3F)CC2)n1)[C@@H]1CCCN1S(=O)(=O)c1ccc(F)cc1 [Example 251, 1-(4-Fluoro-benzenesulfonyl)-pyrrolidine-2S-carboxylic acid {2-[4-(2-fluoro-phenyl)-piperazin-1-yl]-6-phenyl-pyrimidin-4-ylmethyl}-amide] | 2510 nM |
| O=C(NCc1cc(-c2ccc(C(F)(F)F)cc2)nc(N2CCN(c3ccccc3F)CC2)n1)[C@@H]1CCCN1S(=O)(=O)c1ccc(F)cc1Cl [Example 252, 1-(2-Chloro-4-fluoro-benzenesulfonyl)-pyrrolidine-2S-carboxylic acid [2-[4-(2-fluoro-phenyl)-piperazin-1-yl]-6-(4-trifluoromethyl-phenyl)-pyrimidin-4-ylmethyl]-amide] | > 10000 nM |
| COc1cccc(S(=O)(=O)N2CCC[C@H]2C(=O)NCc2cc(-c3ccc(C(F)(F)F)cc3)nc(N3CCN(c4ccccc4F)CC3)n2)c1 [Example 253, 1-(3-Methoxy-benzenesulfonyl)-pyrrolidine-2S-carboxylic acid [2-[4-(2-fluoro-phenyl)-piperazin-1-yl]-6-(4-trifluoromethyl-phenyl)-pyrimidin-4-ylmethyl]-amide] | > 10000 nM |
| O=C(NCc1cc(-c2ccc(C(F)(F)F)cc2)nc(N2CCN(c3ccccc3F)CC2)n1)[C@@H]1CCCN1S(=O)(=O)c1cccc(Cl)c1 [Example 254, 1-(3-Chloro-benzenesulfonyl)-pyrrolidine-2S-carboxylic acid [2-[4-(2-fluoro-phenyl)-piperazin-1-yl]-6-(4-trifluoromethyl-phenyl)-pyrimidin-4-ylmethyl]-amide] | > 10000 nM |
| COc1ccc(S(=O)(=O)N2CCC[C@H]2C(=O)NCc2cc(-c3ccc(C(F)(F)F)cc3)nc(N3CCN(c4ccccc4F)CC3)n2)cc1 [Example 255, 1-(4-Methoxy-benzenesulfonyl)-pyrrolidine-2S-carboxylic acid [2-[4-(2-fluoro-phenyl)-piperazin-1-yl]-6-(4-trifluoromethyl-phenyl)-pyrimidin-4-ylmethyl]-amide] | > 10000 nM |
| Cc1ccc(F)cc1S(=O)(=O)N1CCC[C@H]1C(=O)NCc1cc(-c2ccc(C(F)(F)F)cc2)nc(N2CCN(c3ccccc3F)CC2)n1 [Example 256, 1-(5-Fluoro-2-methyl-benzenesulfonyl)-pyrrolidine-2-carboxylic acid [2-[4-(2-fluoro-phenyl)-piperazin-1-yl]-6-(4-trifluoromethyl-phenyl)-pyrimidin-4-ylmethyl]-amide] | > 10000 nM |
| O=C(NCc1cc(-c2ccc(C(F)(F)F)cc2)nc(N2CCN(c3ccccc3F)CC2)n1)[C@@H]1CCCN1S(=O)(=O)c1cc(Cl)ccc1F [Example 257, 1-(5-Chloro-2-fluoro-benzenesulfonyl)-pyrrolidine-2S-carboxylic acid [2-[4-(2-fluoro-phenyl)-piperazin-1-yl]-6-(4-trifluoromethyl-phenyl)-pyrimidin-4-ylmethyl]-amide] | > 10000 nM |
| O=C(NCc1cc(-c2ccc(C(F)(F)F)cc2)nc(N2CCN(c3ccccc3F)CC2)n1)[C@@H]1CCCN1S(=O)(=O)c1ccc(F)c(F)c1 [Example 258, 1-(3,4-Difluoro-benzenesulfonyl)-pyrrolidine-2S-carboxylic acid [2-[4-(2-fluoro-phenyl)-piperazin-1-yl]-6-(4-trifluoromethyl-phenyl)-pyrimidin-4-ylmethyl]-amide] | 324 nM |
| O=C(NCc1cc(-c2ccc(C(F)(F)F)cc2)nc(N2CCN(c3ccccc3F)CC2)n1)[C@@H]1CCCN1S(=O)(=O)c1ccc(F)c(Cl)c1 [Example 259, 1-(3-Chloro-4-fluoro-benzenesulfonyl)-pyrrolidine-2S-carboxylic acid [2-[4-(2-fluoro-phenyl)-piperazin-1-yl]-6-(4-trifluoromethyl-phenyl)-pyrimidin-4-ylmethyl]-amide] | 3550 nM |
| CC(C)c1ccc(S(=O)(=O)N2CCC[C@H]2C(=O)NCc2cc(-c3ccc(C(F)(F)F)cc3)nc(N3CCN(c4ccccc4F)CC3)n2)cc1 [Example 260, 1-(4-Isopropyl-benzenesulfonyl)-pyrrolidine-2S-carboxylic acid [2-[4-(2-fluoro-phenyl)-piperazin-1-yl]-6-(4-trifluoromethyl-phenyl)-pyrimidin-4-ylmethyl]-amide] | > 10000 nM |
| O=C(NCc1cc(-c2ccc(C(F)(F)F)cc2)nc(N2CCN(c3ccccc3F)CC2)n1)[C@@H]1CCCN1S(=O)(=O)c1ccc(F)c(F)c1F [Example 261, 1-(2,3,4-Trifluoro-benzenesulfonyl)-pyrrolidine-2S-carboxylic acid [2-[4-(2-fluoro-phenyl)-piperazin-1-yl]-6-(4-trifluoromethyl-phenyl)-pyrimidin-4-ylmethyl]-amide] | 2690 nM |
| Cc1c(Cl)cccc1S(=O)(=O)N1CCC[C@H]1C(=O)NCc1cc(-c2ccc(C(F)(F)F)cc2)nc(N2CCN(c3ccccc3F)CC2)n1 [Example 262, 1-(3-Chloro-2-methyl-benzenesulfonyl)-pyrrolidine-2S-carboxylic acid [2-[4-(2-fluoro-phenyl)-piperazin-1-yl]-6-(4-trifluoromethyl-phenyl)-pyrimidin-4-ylmethyl]-amide] | > 10000 nM |
| O=C(NCc1cc(-c2ccc(C(F)(F)F)cc2)nc(N2CCN(c3ccccc3F)CC2)n1)[C@@H]1CCCN1S(=O)(=O)c1ccc(Cl)s1 [Example 263, 1-(5-Chloro-thiophene-2-sulfonyl)-pyrrolidine-2S-carboxylic acid [2-[4-(2-fluoro-phenyl)-piperazin-1-yl]-6-(4-trifluoromethyl-phenyl)-pyrimidin-4-ylmethyl]-amide] | 191 nM |
| O=C(NCc1cc(-c2ccc(C(F)(F)F)cc2)nc(N2CCN(c3ccccc3F)CC2)n1)[C@@H]1CCCN1S(=O)(=O)c1cccs1 [Example 264, 1-(Thiophene-2-sulfonyl)-pyrrolidine-2S-carboxylic acid [2-[4-(2-fluoro-phenyl)-piperazin-1-yl]-6-(4-trifluoromethyl-phenyl)-pyrimidin-4-ylmethyl]-amide] | ~933 nM |
| CCCc1ccc(S(=O)(=O)N2CCC[C@H]2C(=O)NCc2cc(-c3ccc(C(F)(F)F)cc3)nc(N3CCN(c4ccccc4F)CC3)n2)cc1 [Example 265, 1-(4-Propyl-benzenesulfonyl)-pyrrolidine-2S-carboxylic acid [2-[4-(2-fluoro-phenyl)-piperazin-1-yl]-6-(4-trifluoromethyl-phenyl)-pyrimidin-4-ylmethyl]-amide] | > 10000 nM |
| Cc1ccc(C)c(S(=O)(=O)N2CCC[C@H]2C(=O)NCc2cc(-c3ccc(C(F)(F)F)cc3)nc(N3CCN(c4ccccc4F)CC3)n2)c1 [Example 266, 1-(2,5-Dimethyl-benzenesulfonyl)-pyrrolidine-2S-carboxylic acid [2-[4-(2-fluoro-phenyl)-piperazin-1-yl]-6-(4-trifluoromethyl-phenyl)-pyrimidin-4-ylmethyl]-amide] | > 10000 nM |
| O=C(NCc1cc(-c2ccc(C(F)(F)F)cc2)nc(N2CCN(c3ccccc3F)CC2)n1)[C@@H]1CCCN1S(=O)(=O)c1ccc(F)cc1F [Example 267, 1-(2,4-Difluoro-benzenesulfonyl)-pyrrolidine-2S-carboxylic acid [2-[4-(2-fluoro-phenyl)-piperazin-1-yl]-6-(4-trifluoromethyl-phenyl)-pyrimidin-4-ylmethyl]-amide] | 7940 nM |
| O=C(NCc1cc(-c2ccc(C(F)(F)F)cc2)nc(N2CCN(c3ccccc3F)CC2)n1)[C@@H]1CCCN1S(=O)(=O)c1ccccc1Cl [Example 268, 1-(2-Chloro-benzenesulfonyl)-pyrrolidine-2S-carboxylic acid [2-[4-(2-fluoro-phenyl)-piperazin-1-yl]-6-(4-trifluoromethyl-phenyl)-pyrimidin-4-ylmethyl]-amide] | > 10000 nM |
| O=C(NCc1cc(-c2ccc(C(F)(F)F)cc2)nc(N2CCN(c3ccccc3F)CC2)n1)[C@@H]1CCCN1S(=O)(=O)c1ccc(Cl)cc1 [Example 269, 1-(4-Chloro-benzenesulfonyl)-pyrrolidine-2S-carboxylic acid [2-[4-(2-fluoro-phenyl)-piperazin-1-yl]-6-(4-trifluoromethyl-phenyl)-pyrimidin-4-ylmethyl]-amide] | 229 nM |
| O=C(NCc1cc(-c2ccc(C(F)(F)F)cc2)nc(N2CCN(c3ccccc3F)CC2)n1)[C@@H]1CCCN1S(=O)(=O)c1cccc(F)c1 [Example 270, 1-(3-Fluoro-benzenesulfonyl)-pyrrolidine-2S-carboxylic acid [2-[4-(2-fluoro-phenyl)-piperazin-1-yl]-6-(4-trifluoromethyl-phenyl)-pyrimidin-4-ylmethyl]-amide] | 692 nM |
| Cc1cccc(S(=O)(=O)N2CCC[C@H]2C(=O)NCc2cc(-c3ccc(C(F)(F)F)cc3)nc(N3CCN(c4ccccc4F)CC3)n2)c1 [Example 271, 1-(Toluene-3-sulfonyl)-pyrrolidine-2S-carboxylic acid [2-[4-(2-fluoro-phenyl)-piperazin-1-yl]-6-(4-trifluoromethyl-phenyl)-pyrimidin-4-ylmethyl]-amide] | > 10000 nM |
| O=C(NCc1cc(-c2ccc(C(F)(F)F)cc2)nc(N2CCN(c3ccccc3F)CC2)n1)[C@@H]1CCCN1S(=O)(=O)c1ccccc1 [Example 272, 1-Benzenesulfonyl-pyrrolidine-2S-carboxylic acid [2-[4-(2-fluoro-phenyl)-piperazin-1-yl]-6-(4-trifluoromethyl-phenyl)-pyrimidin-4-ylmethyl]-amide] | ~436 nM |
